Measured values from patent publication US20240376090A1, “ISOXAZOLE DERIVATIVES AS MODULATORS OF THE 5-HT2A SEROTONIN RECEPTOR USEFUL FOR THE TREATMENT OF DISORDERED RELATED THERETO” (Arena Pharmaceuticals, Inc., priority 2020, published 2024).

Target: 5-HT2A receptor (Homo sapiens (Human), UniProt P28223)
Test: Radioligand binding assay ([3H]5-HT competition), 5-HT2A
Details: [3H]5-HT radioligand, membranes of HEK293 cells expressing recombinant 5-HT2A; Ki from IC50 by Cheng-Prusoff; read-out: 5-HT2A serotonin binding Ki value
Description: Competition binding experiments consisted of addition of 5 μL of serially diluted test compound, 50 μL of radioligand stock diluted in Assay Buffer (20 mM HEPES, pH 7.4, 10 mM MgCl2), and 145 μL of diluted membrane expressing the receptor of interest to 96-well microtiter plates, which were then incubated for one hour at room temperature. Assay incubations were terminated by rapid filtration through Perkin Elmer GF/C filtration plates under vacuum pressure using a 96-well Packard filtration apparatus, followed by washing the filter plates several times with ice cold Assay Buffer. Plates were then dried at 45° C. for a minimum of four hours. Finally, 25 μL of BetaScint scintillation cocktail was added to each well and the plates were counted in a Packard TopCount scintillation counter. In each competition study, test compounds were assayed at 10 concentrations with three replicates at each test concentration. Dose-response curves were constructed to determine IC50 values and these were converted to corresponding Ki values using the Cheng-Prusoff equation.

5-HT2A receptor, sequence (P28223 whole entry): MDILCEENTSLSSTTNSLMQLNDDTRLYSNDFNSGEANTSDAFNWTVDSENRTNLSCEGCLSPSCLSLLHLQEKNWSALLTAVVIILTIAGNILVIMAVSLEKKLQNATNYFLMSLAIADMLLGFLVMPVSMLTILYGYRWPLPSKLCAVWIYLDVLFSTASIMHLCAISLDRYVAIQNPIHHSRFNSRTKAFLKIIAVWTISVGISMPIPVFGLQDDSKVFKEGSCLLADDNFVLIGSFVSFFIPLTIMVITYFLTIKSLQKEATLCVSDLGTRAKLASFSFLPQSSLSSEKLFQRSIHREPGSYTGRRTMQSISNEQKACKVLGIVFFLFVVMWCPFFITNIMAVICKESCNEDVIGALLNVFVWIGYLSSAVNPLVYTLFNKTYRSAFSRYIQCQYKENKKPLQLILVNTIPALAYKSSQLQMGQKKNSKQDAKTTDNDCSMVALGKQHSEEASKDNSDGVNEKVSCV

SMILES	Ki
CCc1cc(C(=O)Nc2ccc(OC[C@H]3CCCCN3)c(-c3c(C)noc3C)c2)n(C)n1 [Compound 209, (R)—N-(3-(3,5-dimethylisoxazol-4-yl)-4-(piperidin-2-ylmethoxy)phenyl)-3-ethyl-1-methyl-1H-pyrazole-5-carboxamide]	36.3 nM
Cc1noc(C)c1-c1cc(NC(=O)C2CC2)ccc1OCCN1C[C@@H]2C[C@H]1CO2 [Compound 160, N-(4-(2-((1S,4S)-2-oxa-5-azabicyclo[2.2.1]heptan-5-yl)ethoxy)-3-(3,5-dimethylisoxazol-4-yl)phenyl)cyclopropanecarboxamide]	4.07 nM
Cc1nc(C(C)C)sc1C(=O)Nc1ccc(OC[C@H]2CCCCN2)c(-c2c(C)noc2C)c1 [Compound 231, (R)—N-(3-(3,5-dimethylisoxazol-4-yl)-4-(piperidin-2-ylmethoxy)phenyl)-2-isopropyl-4-methylthiazole-5-carboxamide]	16.8 nM
Cc1noc(C)c1-c1cc(NC(=O)C2(F)CC2)ccc1O[C@H]1CCNC1 [Compound 239, (S)—N-(3-(3,5-dimethylisoxazol-4-yl)-4-(pyrrolidin-3-yloxy)phenyl)-1-fluorocyclopropane-1-carboxamide]	59.4 nM
CCOC1CC1C(=O)Nc1ccc(OCCN2CCC2)c(-c2c(C)noc2C)c1 (stereo not shown) [Compound 131, N-(4-(2-(azetidin-1-yl)ethoxy)-3-(3,5-dimethylisoxazol-4-yl)phenyl)-2-ethoxycyclopropane-1-carboxamide]	77.7 nM
Cc1cnoc1C(=O)Nc1ccc(OC[C@H]2CCCCN2)c(-c2c(C)noc2C)c1 [Compound 195, (R)—N-(3-(3,5-dimethylisoxazol-4-yl)-4-(piperidin-2-ylmethoxy)phenyl)-4-methylisoxazole-5-carboxamide]	15.2 nM
CCOC1CC1C(=O)Nc1ccc(OCCN2CCOCC2)c(-c2c(C)noc2C)c1 (stereo not shown) [Compound 135, N-[3-(3,5-dimethylisoxazol-4-yl)-4-(2-morpholinoethoxy)phenyl]-2-ethoxy-cyclopropanecarboxamide]	20.1 nM
Cc1cnsc1C(=O)Nc1ccc(OC[C@H]2CCCCN2)c(-c2c(C)noc2C)c1 [Compound 214, (R)—N-(3-(3,5-dimethylisoxazol-4-yl)-4-(piperidin-2-ylmethoxy)phenyl)-4-methylisothiazole-5-carboxamide]	3.05 nM
Cc1noc(C)c1-c1cc(NC(=O)c2ccnn2C)ccc1OCCN1CCC1 [Compound 118, N-(4-(2-(azetidin-1-yl)ethoxy)-3-(3,5-dimethylisoxazol-4-yl)phenyl)-1-methyl-1H-pyrazole-5-carboxamide]	18.9 nM
Cc1noc(C)c1-c1cc(NC(=O)c2cnoc2C)ccc1OC[C@H]1CCCCN1 [Compound 184, (R)—N-(3-(3,5-dimethylisoxazol-4-yl)-4-(piperidin-2-ylmethoxy)phenyl)-5-methylisoxazole-4-carboxamide]	10.5 nM
Cc1noc(C)c1-c1cc(NC(=O)C2CC2)ccc1OC[C@H]1CCCN1 [Compound 175, (R)—N-(3-(3,5-dimethylisoxazol-4-yl)-4-(pyrrolidin-2-ylmethoxy)phenyl)cyclopropanecarboxamide]	41.6 nM
CC(=O)N1CCN(CCOc2ccc(NC(=O)C3CC3)cc2-c2c(C)noc2C)CC1 [Compound 168, N-[4-[2-(4-acetylpiperazin-1-yl)ethoxy]-3-(3,5-dimethylisoxazol-4-yl)phenyl]cyclopropanecarboxamide]	12.2 nM
Cc1noc(C)c1-c1cc(NC(=O)[C@@H]2C[C@H]2F)ccc1OCCN1CCCC1 [Compound 106, (1S,2R)—N-[3-(3,5-dimethylisoxazol-4-yl)-4-(2-pyrrolidin-1-ylethoxy)phenyl]-2-fluoro-cyclopropanecarboxamide]	1.13 nM
Cc1noc(C)c1-c1cc(NC(=O)C2CC2)ccc1OCCN1CC[C@@H](O)C1 [Compound 148, (R)—N-(3-(3,5-dimethylisoxazol-4-yl)-4-(2-(3-hydroxypyrrolidin-1-yl)ethoxy)phenyl)cyclopropanecarboxamide]	71.6 nM
Cc1nnsc1C(=O)Nc1ccc(OC[C@H]2CCCCN2)c(-c2c(C)noc2C)c1 [Compound 215, (R)—N-(3-(3,5-dimethylisoxazol-4-yl)-4-(piperidin-2-ylmethoxy)phenyl)-4-methyl-1,2,3-thiadiazole-5-carboxamide]	18.4 nM
Cc1noc(C)c1-c1cc(NC(=O)c2ccnn2C)ccc1OC[C@H]1CCCCN1 [Compound 177, N-[3-(3,5-dimethylisoxazol-4-yl)-4-[[(2R)-2-piperidyl]methoxy]phenyl]-2-methyl-pyridinerazole-3-carboxamide]	4.22 nM
COc1ccc(CC(=O)Nc2ccc(OC[C@H]3CCCCN3)c(-c3c(C)noc3C)c2)cc1 [Compound 224, (R)—N-(3-(3,5-dimethylisoxazol-4-yl)-4-(piperidin-2-ylmethoxy)phenyl)-2-(4-methoxyphenyl)acetamide]	1.53 nM

SMILES	Ki
Cc1noc(C)c1-c1cc(NC(=O)C2CC2)ccc1OCCN1CCOCC1 [Compound 166, N-[3-(3,5-dimethylisoxazol-4-yl)-4-(2-morpholinoethoxy)phenyl]cyclopropanecarboxamide]	6.54 nM
Cc1noc(C)c1-c1cc(NC(=O)c2ccccc2)ccc1OCCN1C[C@@H]2C[C@H]1CO2 [Compound 161, N-[3-(3,5-dimethylisoxazol-4-yl)-4-[2-[(1S,4S)-2-oxa-5-azabicyclo[2.2.1]heptan-5-yl]ethoxy]phenyl]benzamide]	6.4 nM
Cc1noc(C)c1-c1cc(N(C)C(=O)C2CC2)ccc1OC[C@H]1CCCCN1 [Compound 236, N-[3-(3,5-dimethylisoxazol-4-yl)-4-[[(2R)-2-piperidyl]methoxy]phenyl]-N-methyl-cyclopropanecarboxamide]	63900 nM
Cc1noc(C)c1-c1cc(NC(=O)c2ncsc2C)ccc1OC[C@H]1CCCCN1 [Compound 188, (R)—N-(3-(3,5-dimethylisoxazol-4-yl)-4-(piperidin-2-ylmethoxy)phenyl)-5-methylthiazole-4-carboxamide]	4.5 nM
Cc1noc(C)c1-c1cc(NC(=O)C2CC2)ccc1OC[C@@H]1CCCCN1 [Compound 170, (S)—N-(3-(3,5-dimethylisoxazol-4-yl)-4-(piperidin-2-ylmethoxy)phenyl)cyclopropanecarboxamide]	49.6 nM
Cc1noc(C)c1-c1cc(NC(=O)C2CC2)ccc1OCCN1CCC12COC2 [Compound 157, N-[3-(3,5-dimethylisoxazol-4-yl)-4-[2-(6-oxa-1-azaspiro[3.3]heptan-1-yl)ethoxy]phenyl]cyclopropanecarboxamide]	2070 nM
Cc1noc(C)c1-c1cc(NC(=O)C2CC2)ccc1OC1CN(C)C1 [Compound 132, N-[3-(3,5-dimethylisoxazol-4-yl)-4-(1-methylazetidin-3-yl)oxy-phenyl]cyclopropanecarboxamide]	46.1 nM
CCN(CC)CCOc1ccc(NC(=O)C2CC2)cc1-c1c(C)noc1C [Compound 153, N-(4-(2-(diethylamino)ethoxy)-3-(3,5-dimethylisoxazol-4-yl)phenyl)cyclopropanecarboxamide]	109 nM
Cc1noc(C)c1-c1cc(NC(=O)C2CC2)ccc1OCCN(C)C1CCC1 [Compound 152, N-(4-(2-(cyclobutyl(methyl)amino)ethoxy)-3-(3,5-dimethylisoxazol-4-yl)phenyl)cyclopropanecarboxamide]	41.7 nM
CCOCCC(=O)Nc1ccc(OCCN2CCCC2)c(-c2c(C)noc2C)c1 [Compound 101, N-(3-(3,5-dimethylisoxazol-4-yl)-4-(2-(pyrrolidin-1-yl)ethoxy)phenyl)-3-ethoxypropanamide]	78.3 nM
Cc1noc(C)c1-c1cc(NC(=O)[C@H]2C[C@H]2F)ccc1OCCN1CCCC1 [Compound 107, (1R,2R)—N-(3-(3,5-dimethylisoxazol-4-yl)-4-(2-(pyrrolidin-1-yl)ethoxy)phenyl)-2-fluorocyclopropane-1-carboxamide]	15.1 nM
CCN1CC(Oc2ccc(NC(=O)C3CC3)cc2-c2c(C)noc2C)C1 [Compound 133, N-(3-(3,5-dimethylisoxazol-4-yl)-4-((1-ethylazetidin-3-yl)oxy)phenyl)cyclopropanecarboxamide]	51.3 nM
Cc1noc(C)c1-c1cc(NC(=O)Cc2nccs2)ccc1OC[C@H]1CCCCN1 [Compound 213, (R)—N-(3-(3,5-dimethylisoxazol-4-yl)-4-(piperidin-2-ylmethoxy)phenyl)-2-(thiazol-2-yl)acetamide]	4.73 nM
COc1cccc(CC(=O)Nc2ccc(OCCN3CCC3)c(-c3c(C)noc3C)c2)c1 [Compound 124, N-(4-(2-(azetidin-1-yl)ethoxy)-3-(3,5-dimethylisoxazol-4-yl)phenyl)-2-(3-methoxyphenyl)acetamide]	10.6 nM
CO[C@@H]1CCN(CCOc2ccc(NC(=O)C3CC3)cc2-c2c(C)noc2C)C1 [Compound 145, (R)—N-(3-(3,5-dimethylisoxazol-4-yl)-4-(2-(3-methoxypyrrolidin-1-yl)ethoxy)phenyl)cyclopropanecarboxamide]	5.51 nM
Cc1noc(C)c1-c1cc(NC(=O)C2(CF)CC2)ccc1OC[C@H]1CCCCN1 [Compound 200, (R)—N-(3-(3,5-dimethylisoxazol-4-yl)-4-(piperidin-2-ylmethoxy)phenyl)-1-(fluoromethyl)cyclopropane-1-carboxamide]	9.08 nM
Cc1nc(C)c(C(=O)Nc2ccc(OC[C@H]3CCCCN3)c(-c3c(C)noc3C)c2)s1 [Compound 194, (R)—N-(3-(3,5-dimethylisoxazol-4-yl)-4-(piperidin-2-ylmethoxy)phenyl)-2,4-dimethylthiazole-5-carboxamide]	32.2 nM
